Data reported in ChEMBL document CHEMBL3039007, “Structure-based identification of OATP1B1/3 inhibitors” (Mol Pharmacol, 2013).

How the values were obtained:
[1] = biological target: T1, Solute carrier organic anion transporter family member 1B1 (Homo sapiens, UniProt Q9Y6L6); conditions: chinese hamster, cho, 10 µM
T1 sequence (Q9Y6L6 whole entry): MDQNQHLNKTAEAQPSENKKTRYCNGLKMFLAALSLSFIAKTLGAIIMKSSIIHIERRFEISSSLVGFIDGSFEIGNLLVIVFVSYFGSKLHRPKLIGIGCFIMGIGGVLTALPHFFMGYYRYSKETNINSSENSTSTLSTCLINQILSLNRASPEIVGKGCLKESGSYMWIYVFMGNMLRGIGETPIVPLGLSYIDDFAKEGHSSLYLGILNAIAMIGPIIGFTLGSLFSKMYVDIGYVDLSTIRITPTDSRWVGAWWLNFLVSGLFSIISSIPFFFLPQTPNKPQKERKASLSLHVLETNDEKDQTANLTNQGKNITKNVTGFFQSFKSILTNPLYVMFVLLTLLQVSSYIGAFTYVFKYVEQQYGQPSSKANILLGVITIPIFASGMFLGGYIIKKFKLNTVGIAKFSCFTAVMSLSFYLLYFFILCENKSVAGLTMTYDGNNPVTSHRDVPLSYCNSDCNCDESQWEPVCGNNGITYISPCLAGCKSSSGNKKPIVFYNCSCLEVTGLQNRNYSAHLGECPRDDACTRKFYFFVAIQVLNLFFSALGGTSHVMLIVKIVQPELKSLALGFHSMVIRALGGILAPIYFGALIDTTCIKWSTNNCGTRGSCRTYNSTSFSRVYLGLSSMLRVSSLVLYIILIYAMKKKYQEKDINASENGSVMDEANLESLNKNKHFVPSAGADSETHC

[2] = biological target: T2, Solute carrier organic anion transporter family member 1B3 (Homo sapiens, UniProt Q9NPD5); conditions: chinese hamster, cho, 10 µM
T2 sequence (Q9NPD5 whole entry): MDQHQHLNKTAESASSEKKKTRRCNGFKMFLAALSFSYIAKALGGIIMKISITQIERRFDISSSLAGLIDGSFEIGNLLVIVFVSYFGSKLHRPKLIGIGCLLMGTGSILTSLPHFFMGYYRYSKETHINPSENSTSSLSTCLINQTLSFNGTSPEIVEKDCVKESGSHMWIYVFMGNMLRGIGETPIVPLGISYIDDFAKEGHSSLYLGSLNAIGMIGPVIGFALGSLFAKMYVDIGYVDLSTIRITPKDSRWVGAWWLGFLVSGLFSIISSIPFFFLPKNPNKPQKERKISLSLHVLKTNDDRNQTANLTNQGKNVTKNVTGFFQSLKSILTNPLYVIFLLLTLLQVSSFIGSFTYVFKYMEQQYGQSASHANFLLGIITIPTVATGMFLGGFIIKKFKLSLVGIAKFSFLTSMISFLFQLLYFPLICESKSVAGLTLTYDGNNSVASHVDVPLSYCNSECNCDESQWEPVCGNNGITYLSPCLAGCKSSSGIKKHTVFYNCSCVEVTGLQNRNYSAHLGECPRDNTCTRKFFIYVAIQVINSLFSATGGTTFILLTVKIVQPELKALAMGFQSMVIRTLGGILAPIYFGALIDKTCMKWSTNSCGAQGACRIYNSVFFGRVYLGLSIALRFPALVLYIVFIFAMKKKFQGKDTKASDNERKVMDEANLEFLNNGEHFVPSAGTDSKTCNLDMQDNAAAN

Row | SMILES | residual activity [1] | residual activity [2]
1 | CCCCCCCCCCCC1=C(O)C(=O)C=C(O)C1=O [EMBELIN] | 98.02% | 94.22%
2 | O=C(O)c1cc(O)c2c(c1)C(=O)c1cc(O)cc(O)c1C2=O [EMODIC ACID] | 150% | 72.9%
3 | Cc1cc(O)c2c(c1)C(=O)c1cc(O)cc(O)c1C2=O [EMODIN] | 135% | 119.5%
4 | CCOC(=O)[C@H](CCc1ccccc1)N[C@@H](C)C(=O)N1CCC[C@H]1C(=O)O.O=C(O)/C=C\C(=O)O [ENALAPRIL MALEATE] | 190.1% | 110.9%
5 | O=C(CC[N+](=O)[O-])OC[C@H]1O[C@@H](O)[C@H](OC(=O)CC[N+](=O)[O-])[C@@H](OC(=O)CC[N+](=O)[O-])[C@@H]1OC(=O)CC[N+](=O)[O-] [ENDECAPHYLLIN X] | 80.29% | 82.04%
6 | O=S1OCC2C(CO1)C1(Cl)C(Cl)=C(Cl)C2(Cl)C1(Cl)Cl (configuration not stated) [ENDOSULFAN] | 111.6% | 117.8%
7 | ClC1=C(Cl)C2(Cl)C3C4CC(C5OC45)C3C1(Cl)C2(Cl)Cl (configuration not stated) [ENDRIN] | 107.3% | 121%
8 | CC(C)C[C@H](NC(=O)[C@H](Cc1ccccc1)NC(=O)CNC(=O)CNC(=O)[C@@H](N)Cc1ccc(O)cc1)C(=O)O [ENKEPHALIN] | 84.58% | 87.68%
9 | CCn1cc(C(=O)O)c(=O)c2cc(F)c(N3CCNCC3)nc21 [ENOXACIN] | 111.1% | 89.58%
10 | C=C[C@@](C)(O)CCC1C(=C)CCC2[C@@](C)(CO)CCC[C@]12C (stereo partly drawn) [EPI(13)TORULOSOL] | 109% | 115.1%
11 | Oc1ccc([C@H]2Oc3cc(O)cc(O)c3C[C@H]2O)cc1 [EPIAFZELECHIN (2R,3R)(-)] | 48.25% | 26.68%
12 | COc1ccc([C@H]2Oc3cc(OC)cc(OC)c3C[C@H]2O)cc1 [EPIAFZELECHIN TRIMETHYL ETHER] | 79.64% | 113.6%
13 | C[C@]12CC[C@H](O)C[C@@H]1CC[C@@H]1[C@@H]2CC[C@]2(C)C(=O)CC[C@@H]12 [EPIANDROSTERONE] | 55.38% | 91.34%
14 | CC(=O)Oc1cc(OC(C)=O)c2c(c1)O[C@H](c1ccc(OC(C)=O)c(OC(C)=O)c1)[C@H](OC(C)=O)C2 [EPICATECHIN PENTAACETATE] | 74.79% | 76.08%
15 | CC(C)CCC[C@@H](C)[C@H]1CC[C@H]2[C@@H]3CC[C@@H]4C[C@H](O)CC[C@]4(C)[C@H]3CC[C@]12C [EPICOPROSTEROL] | 90.49% | 97.38%
16 | O=C(Oc1cc(O)cc2c1C[C@@H](OC(=O)c1cc(O)c(O)c(O)c1)[C@@H](c1cc(O)c(O)c(O)c1)O2)c1cc(O)c(O)c(O)c1 [EPIGALLOCATECHIN 3,5-DIGALLATE] | 55.31% | 82.14%
17 | Oc1cc(O)c2c(c1)O[C@H](c1cc(O)c(O)c(O)c1)[C@H](O)C2 [EPIGALLOCATECHIN] | 101.7% | 96.72%
18 | O=C(O[C@@H]1Cc2c(O)cc(O)cc2O[C@@H]1c1cc(O)c(O)c(O)c1)c1cc(O)c(O)c(O)c1 [EPIGALOCATECHIN GALLATE] | 49.04% | 45.88%
19 | C[C@@H]1C(=O)O[C@H]2[C@H]1CC[C@@]1(C)C=CC(=O)[C@@]3(C)O[C@@]213 [EPOXY (4,5alpha)-4,5-DIHYDROSANTONIN] | 91.53% | 88.69%
20 | C[C@]12CC[C@H]3C(=CCc4cc(O)ccc43)[C@@H]1CCC2=O [EQUILIN] | 88.55% | 96.05%
21 | C[C@@H](CO)NC(=O)[C@@H]1C=C2c3cccc4[nH]cc(c34)C[C@H]2N(C)C1.O=C(O)/C=C\C(=O)O [ERGONOVINE MALEATE] | 69.31% | 84.31%
22 | CC(C)[C@@H](C)/C=C/[C@@H](C)[C@H]1CC[C@H]2C3=CCC4CC(=O)CC[C@]4(C)[C@H]3CC[C@]12C (some centres not stated) [ERGOSTA-7,22-DIEN-3-ONE] | 71.12% | 94.39%
23 | CC(C)[C@@H](C)/C=C/[C@@H](C)[C@H]1CC[C@H]2C3=CC=C4C[C@@H](O)CC[C@]4(C)[C@H]3CC[C@]12C [ERGOSTEROL] | 31.68% | 52.34%

Row | SMILES | residual activity [1] | residual activity [2]
24 | CS(=O)(=O)CCCCN=C=S [ERYSOLIN] | 108.6% | 72.62%
25 | CN(C)CCC[C@@]1(c2ccc(F)cc2)OCc2cc(C#N)ccc21.O=C(O)C(=O)O [ESCITALOPRAM OXALATE] | 102.3% | 117.8%
26 | O=c1ccc2cc(O)c(O)cc2o1 [ESCULETIN] | 111.1% | 105.3%
27 | C[C@]12CC[C@@H]3c4ccc(O)cc4CC[C@H]3[C@@H]1CC[C@@H]2OC(=O)CCC1CCCC1 [ESTRADIOL CYPIONATE] | 81.59% | 90.49%
28 | COc1ccc2c(c1)CC[C@@H]1[C@@H]2CC[C@]2(C)[C@@H](O)CC[C@@H]12 [ESTRADIOL METHYL ETHER] | 137.4% | 110%
29 | CCCCC(=O)O[C@H]1CC[C@H]2[C@@H]3CCc4cc(O)ccc4[C@H]3CC[C@]12C [ESTRADIOL VALERATE] | 291.5% | 129.8%
30 | C[C@]12CC[C@@H]3c4ccc(O)cc4CC[C@H]3[C@@H]1CC[C@@H]2O [ESTRADIOL] | 125.9% | 131.9%
31 | C[C@]12CC[C@@H]3c4ccc(O)cc4CC[C@H]3[C@@H]1C[C@@H](O)[C@@H]2O [ESTRIOL] | 110.2% | 102.7%
32 | CC(=O)Oc1ccc2c(c1)CCC1C2CC[C@]2(C)C(=O)CCC12 (some centres not stated) [ESTRONE ACETATE] | 204.8% | 109.5%
33 | C[C@]12CCC3c4ccc(OC(=O)c5ccccc5)cc4CCC3C1CCC2=O (some centres not stated) [ESTRONE BENZOATE] | 121% | 95.01%
34 | O=C(Cn1ccnc1[N+](=O)[O-])NCCO [ETANIDAZOLE] | 72.81% | 76.09%
35 | C=C(CC)C(=O)c1ccc(OCC(=O)O)c(Cl)c1Cl [ETHACRYNIC ACID] | 171.8% | 111.8%
36 | C#C[C@]1(O)CC[C@H]2[C@@H]3CCc4cc(O)ccc4[C@H]3CC[C@@]21C [ETHINYL ESTRADIOL] | 13.12% | 61.16%
37 | CCN(CC)C(C)CN1c2ccccc2Sc2ccccc21.Cl (configuration not stated) [ETHOPROPAZINE HYDROCHLORIDE] | 60.6% | 85.68%
38 | CCC1(C)CC(=O)NC1=O (configuration not stated) [ETHOSUXIMIDE] | 137.5% | 102.9%
39 | CCOC(=O)c1c(C)cc(OC)cc1O [ETHYL EVERNINATE] | 111.1% | 102.6%
40 | CCOC(=O)c1c(C)cc(O)c(C=O)c1O [ETHYL HEMATOMMATE] | 61.89% | 77.96%
41 | CCC(N)C(O)c1ccc(O)c(O)c1.Cl (configuration not stated) [ETHYLNOREPINEPHRINE HYDROCHLORIDE] | 130.8% | 104.2%
42 | CCc1cccc2c3c([nH]c12)C(CC)(CC(=O)O)OCC3 (configuration not stated) [ETODOLAC] | 68.27% | 103.6%
43 | Cn1c(=O)c2c(ncn2CCO)n(C)c1=O [ETOFYLLINE] | 64.41% | 86.25%
44 | CC1CC(OC(=O)C(O)c2ccccc2)CC(C)(C)N1C.Cl (configuration not stated) [EUCATROPINE HYDROCHLORIDE] | 84.86% | 107.8%
45 | C[n+]1c2cc(N)ccc2cc2ccc(N)cc21.[Cl-] [EUFLAVINE] | 105.1% | 93.94%
46 | Cc1cc(=O)c2c(O)c(C)c(O)cc2o1 [EUGENITOL] | 77.61% | 88.28%
